Experimental data reported in paper PMC10610188, “Structure–Activity Relationship Studies of Chalcones and Diarylpentanoids with Antitumor Activity: Potency and Selectivity Optimization” (Pharmaceuticals, 2023).

Tests used:
HCT116 p53^+/+ cells = test: SRB growth inhibition assay in HCT116 p53+/+ cells; format: cell-based, human; settings: SRB assay, 48 h of treatment
Protocol: (§1) To study the in vitro antitumor potential of chalcone CM-M345 (1) and diarylpentanoid BP-C4 (2) analogues, the sulforhodamine B (SRB) assay was used to evaluate the antiproliferative activity in human colorectal HCT116 cancer cells. To assess their cytotoxicity toward normal cells, the antiproliferative effect of these compounds was also tested in human fibroblasts HFF-1 cells. In order to confirm if inhibition of proliferation was associated with p53 activation in HCT116 p53^+/+ cells, all compounds were also tested in HCT116 cells in which p53 was knocked out (HCT116 p53^−/−) and the selective index was calculated and compared to the compounds CM-M345 (1) and BP-C4 (2), for which p53-dependent antiproliferative activity was previously reported by our research group (Table 1).
(§2) The colorectal adenocarcinoma HCT116 cells (HCT116 p53^+/+) and its p53-null isogenic derivative (HCT116 p53^−/−) were given by Prof. Vogelstein (The Johns Hopkins Kimmel Cancer Center, Baltimore, USA); the normal human fibroblasts HFF-1 cell lines were from ATCC (Rockville, MD, USA). Human cells were cultured in RPMI-1640 with UltraGlutamine (Lonza, VWR, Portugal) with 10% FBS (Gibco, Alfagene, Portugal) at 37 °C with 5% CO2. The SH-SY5Y cells were cultured in DMEM/F-12 (Lonza) and 10% FBS and 2mM L-glutamine (Gibco). The cells were incubated at 37 °C in a humidified atmosphere of 5% CO2. Mycoplasma was routinely checked using the MycoAlert™ PLUS kit (Lonza). […]

HFF-1 cells = test: SRB growth inhibition assay in normal fibroblasts HFF-1; format: cell-based, human; settings: for GI50: Homo sapiens, HFF-1, SRB assay, 48 h of treatment; for SI2: Selective index 2: GI50 of HFF-1/GI50 of HCT116 p53^+/+
Protocol: as §1, §2

HCT116 p53^−/− cells = test: SRB growth inhibition assay in HCT116 p53-/- cells; format: cell-based, human; settings: for GI50: Homo sapiens, HCT-116, SRB assay, 48 h of treatment; for SI1: Selective index 1: GI50 of HCT116 p53^−/−/GI50 of HCT116 p53^+/+
Protocol: as §1, §2

Structure (SMILES)	GI50 (HCT116 p53^+/+ cells; Homo sapiens, HCT-116, 48 h) [µM]	GI50 (HFF-1 cells) [µM]	melting point [°C]	GI50 (HCT116 p53^−/− cells) [µM]	SI2: Selective index 2 (HFF-1 cells)	SI1: Selective index 1 (HCT116 p53^−/− cells)	GI50 (HCT116 p53^+/+ cells; Homo sapiens, HCT-116) [µM]	GI50 (HCT116 p53^+/+ cells) [µM]
OC1/C(=C/c2ccc(Cl)cc2)COC/C1=C\c1ccc(Cl)cc1 (centres unmarked) [Compound 30, 3,5-bis((E)-4-chlorobenzylidene)tetrahydro-2H-pyran-4-ol]	> 30	> 30	219 to 222	> 30	–	–	–	–
O=C1/C(=C/c2ccc(Cl)cc2)CC/C1=C\c1ccc(Cl)cc1 [Compound 18]	> 30	> 30	–	> 30	–	–	–	–
CCCc1c(OC)ccc(C(=O)CCc2cc(OC)c(OC)c(OC)c2)c1O [Compound 29, 1-(2-hydroxy-4-methoxy-3-propylphenyl)-3-(3,4,5-trimethoxyphenyl)propan-1-one]	18.7 ± 2.19	22.1 ± 7.2	–	11.2 ± 5.3	1.18	0.60	–	–
COc1cc(/C=C2\CCc3ccccc3C2=O)cc(OC)c1OC [Compound 9]	5.9 ± 1.28	5.5 ± 0.03	–	7.8 ± 0.9	0.93	1.32	–	–
COc1cc2c(cc1OC)C(=O)/C(=C/c1ccc(Cl)cc1)C2 [Compound 8]	–	5.1 ± 0.9	–	4.5 ± 0.28	0.68	0.60	7.5 ± 0.45	–
COc1cc2c(cc1OC)C(=O)/C(=C/c1ccc(Cl)cc1)CC2 [Compound 14, (E)-2-(4-chlorobenzylidene)-6,7-dimethoxy-3,4-dihydronaphthalen-1(2H)-one]	6.7 ± 0.21	7.7 ± 0.2	–	4.3 ± 0.15	–	–	–	–
CC(C)=CCOc1ccccc1/C=C1\COC/C(=C\c2ccccc2OCC=C(C)C)C1=O [Compound 38, 3,5-bis((E)-2-((3-methylbut-2-en-1-yl)oxy)benzylidene)tetrahydro-4H-pyran-4-one]	> 30	> 30	–	> 30	–	–	–	–
COc1cc([C@@H]2c3cc4c(cc3[C@@H](O[C@@H]3O[C@@H]5CO[C@@H](C)O[C@H]5[C@H](O)[C@H]3O)[C@H]3COC(=O)[C@H]23)OCO4)cc(OC)c1O [Etoposide, reference compound]	0.71	0.35	–	–	–	–	–	–
COc1cc(/C=C2\CSc3ccccc3C2=O)cc(OC)c1OC [Compound 12, (Z)-3-(3,4,5-trimethoxybenzylidene)thiochroman-4-one]	5.7 ± 0.51	6.7 ± 0.4	–	3.9 ± 0.26	–	–	–	–
COc1cc(/C=C2\CC/C(=C\c3cc(OC)c(OC)c(OC)c3)C2=O)cc(OC)c1OC [Compound 22]	0.09 ± 0.03	0.135 ± 0.004	–	0.07 ± 0.01	1.50	0.78	–	–
COc1cc(/C=C2\CCC/C(=C\c3cc(OC)c(OC)c(OC)c3)C2=O)cc(OC)c1OC [Compound 23]	2.3 ± 0.03	1.65 ± 0.04	–	0.56 ± 0.07	0.72	0.24	–	–
COc1cc(/C=C/C(=O)/C=C/c2cc(OC)c(OC)c(OC)c2)cc(OC)c1OC [Compound 21]	> 30	> 30	–	> 30	–	–	–	–
O=C1/C(=C/c2ccc(Cl)cc2)CCC/C1=C\c1ccc(Cl)cc1 [Compound 19]	3.1 ± 0.1	14.1 ± 0.12	–	2.95 ± 0.15	4.55	0.95	–	–
O=C1/C(=C/c2ccc(Cl)cc2)COc2ccccc21 [Compound 15]	8.6 ± 0.5	4.25 ± 0.32	–	5.29 ± 0.19	0.49	0.62	–	–
CCCc1c(OC)ccc(C(=O)/C=C/c2ccc(N(C)C)cc2)c1O [Compound 35, (E)-3-(4-(dimethylamino)phenyl)-1-(2-hydroxy-4-methoxy-3-propylphenyl)prop-2-en-1-one]	–	14 ± 3.6	126 to 128	16.3 ± 2.6	1.31	1.52	–	–
O=C1/C(=C/c2ccc(Cl)cc2)CCc2ccccc21 [Compound 13]	21.5 to 30	> 30	–	> 30	–	–	–	> 30
